Source: patent US20130344026A1, “Dimeric Smac Mimetics” (priority 2009, published 2013)

system: HCC461; test: cell viability assay in HCC461, compound alone; format: cell-based; details: HCC461, HCC461; Tables 15-18; read-out: IC50 (uM) in cell viability assay in HCC461

SMILES | IC50 [µM]
CN[C@@H](C)C(=O)N[C@H](C(=O)N1CCC[C@H]1C(=O)N[C@H](CNC(=O)c1cc(N)cc(C(=O)NC[C@@H](NC(=O)[C@@H]2CCCN2C(=O)[C@@H](NC(=O)[C@H](C)NC)C(C)(C)C)c2ccccc2)c1)c1ccccc1)C(C)(C)C [Compound P4-13] | 0.089
CN[C@@H](C)C(=O)N[C@H](C(=O)N1CCC[C@H]1C(=O)N[C@H](CNC(=O)CCCC(=O)NC[C@@H](NC(=O)[C@@H]1CCCN1C(=O)[C@@H](NC(=O)[C@H](C)NC)C(C)(C)C)c1ccccc1)c1ccccc1)C(C)(C)C [Compound P4-14] | 0.093
CN[C@@H](C)C(=O)N[C@H](C(=O)N1CCC[C@H]1C(=O)N[C@H](CNC(=O)[C@H]1CC[C@@](C)(C(=O)NC[C@@H](NC(=O)[C@@H]2CCCN2C(=O)[C@@H](NC(=O)[C@H](C)NC)C(C)(C)C)c2ccccc2)C1(C)C)c1ccccc1)C(C)(C)C [Compound P4-15] | 0.085
CN[C@@H](C)C(=O)N[C@H](C(=O)N1CCC[C@H]1C(=O)N[C@H](CNC(=O)c1cccc(C(=O)NC[C@@H](NC(=O)[C@@H]2CCCN2C(=O)[C@@H](NC(=O)[C@H](C)NC)C2CCCCC2)C2CCCCC2)c1)C1CCCCC1)C1CCCCC1 [Compound P4-16] | 0.13
CN[C@@H](C)C(=O)N[C@H](C(=O)N1CCC[C@H]1C(=O)N[C@H](COCc1ccc(COC[C@@H](NC(=O)[C@@H]2CCCN2C(=O)[C@@H](NC(=O)[C@H](C)NC)C(C)(C)C)C2CCCCC2)cc1)C1CCCCC1)C(C)(C)C [Compound P4-17] | 0.015
CN[C@@H](C)C(=O)N[C@H](C(=O)N1CCC[C@H]1C(=O)N[C@H](COCc1cccc(COC[C@@H](NC(=O)[C@@H]2CCCN2C(=O)[C@@H](NC(=O)[C@H](C)NC)C(C)(C)C)C2CCCCC2)c1)c1ccccc1)C(C)(C)C [Compound P4-18] | 0.013
